Test [1] concerns the target T1, PARP7 (Homo sapiens, UniProt Q7Z3E1).
T1 sequence (Q7Z3E1 1-657): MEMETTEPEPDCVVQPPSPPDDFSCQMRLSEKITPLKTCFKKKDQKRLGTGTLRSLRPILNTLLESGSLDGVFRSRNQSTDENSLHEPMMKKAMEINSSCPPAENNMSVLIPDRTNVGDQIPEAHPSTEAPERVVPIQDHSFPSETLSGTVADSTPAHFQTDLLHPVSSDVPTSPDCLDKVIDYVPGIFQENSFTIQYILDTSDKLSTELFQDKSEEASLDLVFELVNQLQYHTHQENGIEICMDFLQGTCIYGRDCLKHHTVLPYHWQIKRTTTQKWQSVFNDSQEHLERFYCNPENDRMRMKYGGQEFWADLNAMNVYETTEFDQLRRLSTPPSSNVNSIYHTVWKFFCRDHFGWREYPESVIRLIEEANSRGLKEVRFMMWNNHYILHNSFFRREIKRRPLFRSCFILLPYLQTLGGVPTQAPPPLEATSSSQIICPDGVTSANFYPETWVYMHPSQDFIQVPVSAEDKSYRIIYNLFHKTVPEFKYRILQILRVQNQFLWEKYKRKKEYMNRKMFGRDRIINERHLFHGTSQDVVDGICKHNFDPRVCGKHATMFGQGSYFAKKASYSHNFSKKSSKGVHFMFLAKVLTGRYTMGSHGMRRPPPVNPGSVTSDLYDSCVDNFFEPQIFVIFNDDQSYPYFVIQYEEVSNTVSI
Put plainly: Probe Displacement Assay for PARP7 (MSD electrochemiluminescent, biotinylated probe RBNO11147). The note with it: displacement of biotinylated probe RBNO11147 from PARP7 NAD+-binding site; read-out: MSD ProbeDisp PARP7 IC50.

The test system of test [2] is endogenous cellular STAT1 (phosphorylated at Tyr701) in NCI-H1373 cells. Put plainly: Phospho-STAT1 (Tyr701) LANCE Ultra TR-FRET Detection Assay. The note with it: Homo sapiens, NCI-H1373, 48 h, phospho-STAT1 (Tyr701) induction, read-out: NH1373 pSTAT1 EC50. The test is classed as cell-based. (In general: TR-FRET usually uses a lanthanide donor and a delayed reading to cut background.)

For `Cc1cn(CCC[C@H](C)Nc2cn[nH]c(=O)c2C(F)(F)F)c(=O)c2ccc(-c3ncc(C(F)(F)F)cn3)cc12` [Example 46, 4-methyl-2-[(4S)-4-[[6-oxo-5-(trifluoromethyl)-1H-pyridazin-4-yl]amino]pentyl]-6-[5-(trifluoromethyl)pyrimidin-2-yl]isoquinolin-1-one], the IC50 in test [1] came out at 0.824 nM. Also, the half-maximal effective concentration (EC50) in test [2] was found to be 432 nM.

For `C[C@@H](CCCn1ccc2cc(-c3ncc(OC(F)F)cn3)c(F)cc2c1=O)Nc1cn[nH]c(=O)c1C(F)(F)F` [Example 42, 6-[5-(difluoromethoxy)pyrimidin-2-yl]-7-fluoro-2-[(4S)-4-[[6-oxo-5-(trifluoromethyl)-1H-pyridazin-4-yl]amino]pentyl]isoquinolin-1-one], in test [1], the IC50 was found to be 1 nM. Also, the EC50 in test [2] came to 133 nM.

Turning to `C[C@@H](CCCn1ccc2cc(-c3cn4ccccc4n3)c(F)cc2c1=O)Nc1cn[nH]c(=O)c1C(F)(F)F` [Example 305, (S)-7-fluoro-6-(imidazo[1,2-a]pyridin-2-yl)-2-(4-((6-oxo-5-(trifluoromethyl)-1,6-dihydropyridazin-4-yl)amino)pentyl)isoquinolin-1(2H)-one], in test [1], the IC50 is 0.387 nM. The EC50 in test [2] was found to be 57 nM.

Regarding `C[C@@H](CCCn1ccc2cc(-c3ccc(C#N)cn3)cc(F)c2c1=O)Nc1cn[nH]c(=O)c1C(F)(F)F` [Example 18, (S)-6-(8-fluoro-1-oxo-2-(4-((6-oxo-5-(trifluoromethyl)-1,6-dihydropyridazin-4-yl)amino)pentyl)-1,2-dihydroisoquinolin-6-yl)nicotinonitrile], the IC50 in test [1] turned out to be 0.4 nM. Besides, the EC50 in test [2] worked out at 164 nM.

Take `O=c1[nH]ncc(N[C@H](CCCn2ccc3cc(-c4ncc(C(F)(F)F)cn4)c(F)cc3c2=O)C2CC2)c1C(F)(F)F` [Example 36, 2-[(4R)-4-cyclopropyl-4-[[6-oxo-5-(trifluoromethyl)-1H-pyridazin-4-yl]amino]butyl]-7-fluoro-6-[5-(trifluoromethyl)pyrimidin-2-yl]isoquinolin-1-one]: in test [1], the IC50 turned out to be 0.7 nM. In addition, the EC50 in test [2] is 74.1 nM.

For `C[C@@H](CCCn1ccc2cc(-c3nc4ccccn4n3)c(F)cc2c1=O)Nc1cn[nH]c(=O)c1C(F)(F)F` [Example 306, (S)-6-([1,2,4]triazolo[1,5-a]pyridin-2-yl)-7-fluoro-2-(4-((6-oxo-5-(trifluoromethyl)-1,6-dihydropyridazin-4-yl)amino)pentyl)isoquinolin-1(2H)-one], the IC50 in test [1] was found to be 0.21 nM. The half-maximal effective concentration (EC50) in test [2] amounted to 2.18 nM.

For `C[C@@H](CCCn1ccc2cc(-c3ncc(C(F)(F)F)c(N4C[C@@H](O)C[C@@H]4C)n3)c(F)cc2c1=O)Nc1cn[nH]c(=O)c1C(F)(F)F` [Example 312, 7-fluoro-6-(4-((2S,4S)-4-hydroxy-2-methylpyrrolidin-1-yl)-5-(trifluoromethyl)pyrimidin-2-yl)-2-((S)-4-((6-oxo-5-(trifluoromethyl)-1,6-dihydropyridazin-4-yl)amino)pentyl)isoquinolin-1(2H)-one], the IC50 in test [1] was determined as 0.623 nM. The EC50 in test [2] was 70 nM.

For `C[C@@H](CCCn1ccc2cc(-c3ccc(C(F)F)cn3)c(F)cc2c1=O)Nc1cn[nH]c(=O)c1C(F)(F)F` [Example 33, 6-[5-(difluoromethyl)-2-pyridyl]-7-fluoro-2-[(4S)-4-[[6-oxo-5-(trifluoromethyl)-1H-pyridazin-4-yl]amino]pentyl]isoquinolin-1-one], the IC50 in test [1] was 0.5 nM. In test [2], the EC50 came to 168 nM.

Take `C[C@@H](CCCn1ccc2cc(-c3ccc(C(F)(F)F)cn3)ncc2c1=O)Nc1cn[nH]c(=O)c1C(F)(F)F` [Example 13, 2-[(4S)-4-[[6-oxo-5-(trifluoromethyl)-1H-pyridazin-4-yl]amino]pentyl]-6-[5 (trifluoromethyl)-2-pyridyl]-2,7-naphthyridin-1-one]: the IC50 in test [1] worked out at 3.7 nM. In addition, the EC50 in test [2] was determined as 10000 nM.

Take `O=c1[nH]ncc(N[C@H](CCCn2ccc3cc(-c4ncc(C(F)(F)F)cn4)c(F)cc3c2=O)COC(F)F)c1C(F)(F)F` [Example 168, 2-[(4R)-5-(difluoromethoxy)-4-[[6-oxo-5-(trifluoromethyl)-1H-pyridazin-4-yl]amino]pentyl]-7-fluoro-6-[5-(trifluoromethyl)pyrimidin-2-yl]isoquinolin-1-one]: the IC50 in test [1] turned out to be 0.256 nM. Besides, the EC50 in test [2] was determined as 1.32 nM.

As to `C[C@@H](CCCn1ccc2cc(-c3ccc(C(F)(F)F)cn3)c(F)c(F)c2c1=O)Nc1cn[nH]c(=O)c1C(F)(F)F` [Example 55, (S)-7,8-difluoro-2-(4-((6-oxo-5-(trifluoromethyl)-1,6-dihydropyridazin-4-yl)amino)pentyl)-6-(5-(trifluoromethyl)pyridin-2-yl)isoquinolin-1(2H)-one], the IC50 in test [1] amounted to 0.692 nM. Besides, the EC50 in test [2] is 39.1 nM.

`C[C@@H](CCCn1ccc2cc(-c3ncc(OC(F)F)cn3)c(F)c(F)c2c1=O)Nc1cn[nH]c(=O)c1C(F)(F)F` [Example 56, (S)-6-(5-(difluoromethoxy)pyrimidin-2-yl)-7,8-difluoro-2-(4-((6-oxo-5-(trifluoromethyl)-1,6-dihydropyridazin-4-yl)amino)pentyl)isoquinolin-1(2H)-one]: the IC50 in test [1] worked out at 0.579 nM. Also, in test [2], the EC50 is 67.2 nM.

`Nc1nc(-c2cc3ccn(CCC[C@H](COC(F)F)Nc4cn[nH]c(=O)c4C(F)(F)F)c(=O)c3cc2F)ccc1C(F)(F)F` [Example 380, (R)-6-(6-amino-5-(trifluoromethyl)pyridin-2-yl)-2-(5-(difluoromethoxy)-4-((6-oxo-5-(trifluoromethyl)-1,6-dihydropyridazin-4-yl)amino)pentyl)-7-fluoroisoquinolin-1(2H)-one]: the IC50 in test [1] is 0.211 nM. The EC50 in test [2] worked out at 4.88 nM.

Regarding `C[C@@H](CCCn1ccc2cc(-c3ncc4cn[nH]c4n3)c(F)cc2c1=O)Nc1cn[nH]c(=O)c1C(F)(F)F` [Example 299, (S)-7-fluoro-2-(4-((6-oxo-5-(trifluoromethyl)-1,6-dihydropyridazin-4-yl)amino)pentyl)-6-(1H-pyrazolo[3,4-d]pyrimidin-6-yl)isoquinolin-1(2H)-one], the IC50 in test [1] turned out to be 0.221 nM. For the same compound, the EC50 in test [2] was 31 nM.

As to `C[C@@H](CCCn1cnc2cc(-c3ncc(C(F)(F)F)c(N4CC(C#N)C4)n3)c(F)cc2c1=O)Nc1cn[nH]c(=O)c1C(F)(F)F` [Example 206], the IC50 in test [1] was 0.188 nM. In test [2], the EC50 amounted to 9.34 nM.

Consider `C[C@@H](CCCn1ccc2cc(-c3ncc(C(F)(F)F)cn3)c(Cl)cc2c1=O)Nc1cn[nH]c(=O)c1C(F)(F)F` [Example 44, 7-chloro-2-[(4S)-4-[[6-oxo-5-(trifluoromethyl)-1H-pyridazin-4-yl]amino]pentyl]-6-[5-(trifluoromethyl)pyrimidin-2-yl]isoquinolin-1-one], for which, in test [1], the IC50 worked out at 0.67 nM. For the same compound, the EC50 in test [2] stood at 10000 nM.

Regarding `CC[C@@H](CCCn1cnc2cc(-c3ncc(C(F)(F)F)cn3)c(F)cc2c1=O)Nc1cn[nH]c(=O)c1C(F)(F)F` [Example 155, (S)-6-fluoro-3-(4-((6-oxo-5-(trifluoromethyl)-1,6-dihydropyridazin-4-yl)amino)hexyl)-7-(5-(trifluoromethyl)pyrimidin-2-yl)quinazolin-4(3H)-one], the IC50 in test [1] was determined as 0.2 nM. For the same compound, the EC50 in test [2] amounted to 21.2 nM.

Consider `C[C@@H](CCCn1ccc2cc(-c3ncc(F)cn3)c(F)cc2c1=O)Nc1cn[nH]c(=O)c1C(F)(F)F` [Example 34, 7-fluoro-6-(5-fluoropyrimidin-2-yl)-2-[(4S)-4-[[6-oxo-5-(trifluoromethyl)-1H-pyridazin-4-yl]amino]pentyl]isoquinolin-1-one], for which, in test [1], the IC50 was 0.6 nM. For the same compound, the EC50 in test [2] was determined as 429 nM.

`C[C@@H](CCCn1ccc2cc(-c3cc(N)c(C(F)(F)F)cn3)c(F)cc2c1=O)Nc1cn[nH]c(=O)c1C(F)(F)F` [Example 49, 6-[4-amino-5-(trifluoromethyl)-2-pyridyl]-7-fluoro-2-[(4S)-4-[[6-oxo-5-(trifluoromethyl)-1H-pyridazin-4-yl]amino]pentyl]isoquinolin-1-one]: the IC50 in test [1] worked out at 0.413 nM. Also, the EC50 in test [2] is 54.1 nM.

As to `C[C@@H](CCCn1ccc2cc(-c3ncc(C(F)(F)F)cn3)c(F)c(F)c2c1=O)Nc1cn[nH]c(=O)c1C(F)(F)F` [Example 20], the IC50 in test [1] came out at 0.3 nM. Also, the EC50 in test [2] turned out to be 14.6 nM.

As to `C[C@@H](CCCn1ccc2cc(-c3ccc(F)cn3)cc(F)c2c1=O)Nc1cn[nH]c(=O)c1C(F)(F)F` [Example 19, (S)-8-fluoro-6-(5-fluoropyridin-2-yl)-2-(4-((6-oxo-5-(trifluoromethyl)-1,6-dihydropyridazin-4-yl)amino)pentyl)isoquinolin-1(2H)-one], the IC50 in test [1] was determined as 0.3 nM. Moreover, the EC50 in test [2] is 74.1 nM.

For `C[C@@H](CCCn1ccc2cc(-c3ccc(C4(C(F)(F)F)CC4)cn3)cc(F)c2c1=O)Nc1cn[nH]c(=O)c1C(F)(F)F` [Example 39, 8-fluoro-2-[(4S)-4-[[6-oxo-5-(trifluoromethyl)-1H-pyridazin-4-yl]amino]pentyl]-6-[5-[1-(trifluoromethyl)cyclopropyl]-2-pyridyl]isoquinolin-1-one], in test [1], the IC50 amounted to 2.5 nM. The EC50 in test [2] came out at 890 nM.

One may read the IC50 as the concentration that inhibits the measured activity by half. Broadly, the EC50 is the concentration at which the effect is half-maximal.
